Source: US10434101B2, “Heterocyclic compounds and uses thereof” (Celgene CAR LLC, priority 2010, dated 2019)
Where two headings read alike, the source gives them in different places.

Assays:
[1] = molecular target: EGFR double mutation L858R/T790M (H1975 cells) (Homo sapiens (Human), UniProt P00533, L858R/T790M); assay: Phospho-EGFR signaling (immunoblotting, 1 hr) in H1975 cells; assay type: cell-based; conditions: signaling EC50 WT (A431) / H1975
Description: (§1) A431 human epidermoid carcinoma, H1975 human NSCLC and HCC827 human NSCLC adenocarcinoma cells were obtained from the American Type Culture Center (Manassas, Va.). A431 cells were grown in DMEM (Invitrogen, Carlsbad, Calif.) supplemented with 10% FBS (HyClone, South Logan, Utah) and 1% Penicillin-Streptomycin (P/S, Lonza, Walkersville, Md.).
(§2) All primary antibodies were obtained from Cell Signaling (Danvers, Mass.) and used at 1:1000. Secondary antibodies were used at 1:10,000. Goat anti-mouse IgG IRDye 800CW antibody was obtained from LiCor Biosciences (Lincoln, Nebr.) and goat anti-rabbit IgG Alexa Fluor 680 was obtained from Invitrogen.
(§3) Cells were grown in 12-well plates (Corning, Coring, N.Y.) to 90% confluence and then incubated in low-serum (0.1% FBS) media for 16-18 hr. […] A431 cells were then stimulated with 50 ng/ml EGF (Peprotech, Rocky Hill, N.J.) for 15 min. After treatment, cell monolayers were washed with cold PBS (Invitrogen) and immediately lysed by scrapping into 60 uL cold Cell Extraction Buffer (Invitrogen) supplemented with Complete Protease inhibitors (Roche, Indianapolis, Ind.) and PhosphoSTOP (Roche) phosphatase inhibitors.
(§4) Phospho-protein signals were quantitated using Odyssey Infrared Imaging (Li-Cor Biosciences).
(§5) To assess phosphor-EGFR signaling, blots were probed with rabbit anti-Phospho-EGFR (Y1068) and mouse total anti-EGFR antibodies. Phospho-EGFR signal was normalized to total EGFR expression for each sample. […] Normalized data was fitted using a sigmoidal curve analysis program (Graph Pad Prism version 5) with variable Hill slope to determine the EC50 values.

[2] = tested on: A431 cells (WT EGFR); assay: Cell proliferation (CellTiter Glo, 72 hr) in A431 cells; assay type: cell-based; conditions: Homo sapiens, A-431
Description: as §1
(§6) Cells were plated in Growth Media supplemented with 5% FBS and 1% P/S at a density of 3,000 cells per well in 96 well tissue culture plates (Corning). […] Growth inhibition (GI50) values were determined by Graph Pad Prism.

[3] = tested on: H1975 cells (EGFR L858R/T790M); assay: Cell proliferation (CellTiter Glo, 72 hr) in H1975 cells; assay type: cell-based, human; conditions: Homo sapiens, NCI-H1975
Description: as §1, §6

[4] = tested on: HCC827 cells (EGFR delE746-A750); assay: Cell proliferation (CellTiter Glo, 72 hr) in HCC827 cells; assay type: cell-based, human; conditions: Homo sapiens
Description: as §1, §6

[5] = molecular target: pEGFR in H1975 cells (Homo sapiens (Human), UniProt P00533, L858R/T790M); assay: Washout experiment in H1975 cells (pEGFR); assay type: cell-based; conditions: 500 nM for 1 hr; for pEGFR activity restored: 24 h after compound removal, by new protein synthesis; for inhibition at 0.5 µM: NCI-H1975
Description: Washout Experiment in H1975 Cells Containing EGFR Deletion/T790M Mutation
Cells were plated in Growth Media supplemented with 10% FBS and 1% P/S at a density of 2.0×10^5 cells per well in 12 well tissue culture plates. Cells were allowed to settle down for 4 hrs and then maintained in low-serum (0.1% FBS) media overnight.
The following morning the media was removed and the cells were treated with 500 nM test compound in low-serum media for 1 hr. The cells were washed free of compound 2× with PBS (Invitrogen). One set of cells were immediately lysed as indicated above as the 0 hr time point. The remaining cells were incubated with complete RPMI-1640 growth media (10% FBS) for 1, 3, 6 and 24 hr. For the first 1 hr, cells were washed 2× with PBS every 30 min. DMSO (0.5%) controls were collected at the 0, 3, 6 and 24 hr time points.

[6] = molecular target: EGFR delE746-A750 deletion mutation (HCC827 cells) (Homo sapiens (Human), UniProt P00533, DEL746-750); assay: Phospho-EGFR signaling (immunoblotting, 1 hr) in HCC827 cells; assay type: cell-based; conditions: signaling EC50 WT (A431) / HCC827
Description: as §1, §2, §3, §4, §5

[7] = A431 cells, 72 hr, read-out: WT EGFR GI50
[8] = Table 2, A431 cells express WT EGFR, read-out: Comparative GI50 Values, A431
[9] = H1975 cells, 72 hr, read-out: H1975 GI50
[10] = Table 2, H1975 express EGFR L858R/T790M, read-out: Comparative GI50 Values, H1975
[11] = HCC827 cells, 72 hr, read-out: HCC827 GI50
[12] = Table 2, HCC827 express EGFR delE746-A750, read-out: Comparative GI50 Values, HCC827
[13] = 1 hr after compound removal, read-out: pEGFR phosphorylation inhibited
[14] = for at least 8 hours after compound was removed, read-out: pEGFR remained inhibited

C=CC(=O)Nc1cccc(Nc2nc(Nc3ccc(N4CCOCC4)cc3OC)ncc2C(F)(F)F)c1 [Compound I-2, N-(3-(2-(2-methoxy-4-morpholinophenylamino)-5-(trifluoromethyl)pyrimidin-4-ylamino)phenyl)acrylamide]
Ratio WT/mutant (H1975) [1]: >50 | GI50 [2, 7]: > 1000 nM | GI50 [2, 8]: > 1000 nM | GI50 [3, 9]: 10 to 100 nM | GI50 [3, 10]: 10 to 100 nM | GI50 [4, 11]: 10 to 100 nM | GI50 [4, 12]: 10 to 100 nM | pEGFR activity restored [5]: 40-60% | inhibition at 0.5 µM [5, 13]: 80 to 100% | inhibition at 0.5 µM [5, 14]: 60 to 90%

C=CC(=O)Nc1cccc(Nc2nc(Nc3ccc(N4CCN(C(C)=O)CC4)cc3OC)ncc2C(F)(F)F)c1 [Compound I-4, N-(3-(2-(4-(4-acetylpiperazin-1-yl)-2-methoxyphenylamino)-5-(trifluoromethyl)pyrimidin-4-ylamino)phenyl)acrylamide]
GI50 [2, 7]: 500 to 1000 nM | GI50 [2, 8]: 500 to 1000 nM | GI50 [3, 9]: 10 to 100 nM | GI50 [3, 10]: 10 to 100 nM | GI50 [4, 11]: 10 to 100 nM | GI50 [4, 12]: 10 to 100 nM | pEGFR activity restored [5]: 40-60% | inhibition at 0.5 µM [5, 13]: 80 to 100% | inhibition at 0.5 µM [5, 14]: 60 to 90%

C=CC(=O)Nc1cccc(Oc2nc(Nc3ccc(N4CCN(C(=O)CO)CC4)cc3OC)ncc2C(F)(F)F)c1 [Compound I-11, N-(3-(2-(4-(4-(2-hydroxyacetyl)piperazin-1-yl)-2-methoxyphenylamino)-5-(trifluoromethyl)pyrimidin-4-yloxy)phenyl)acrylamide]
Ratio WT/mutant (H1975) [1]: >15 | GI50 [2, 7]: > 1000 nM | GI50 [3, 9]: 100 to 500 nM | GI50 [4, 11]: 10 to 100 nM

C=CC(=O)Nc1cccc(Nc2nc(Nc3ccc(N4CCN(C(=O)CO)CC4)cc3OC)ncc2Cl)c1 [Compound I-12, N-(3-(5-chloro-2-(4-(4-(2-hydroxyacetyl)piperazin-1-yl)-2-methoxyphenylamino)pyrimidin-4-ylamino)phenyl)acrylamide]
Ratio WT/mutant (H1975) [1]: >1 | GI50 [2, 7]: 500 to 1000 nM | GI50 [3, 9]: 100 to 500 nM | GI50 [4, 11]: 10 to 100 nM

C=CC(=O)Nc1cccc(Nc2nc(Nc3ccc(N4CCOCC4)cc3OC(F)F)ncc2C(F)(F)F)c1 [Compound I-14, N-(3-(2-(2-(difluoromethoxy)-4-morpholinophenylamino)-5-(trifluoromethyl)pyrimidin-4-ylamino)phenyl)acrylamide]
Ratio WT/mutant (H1975) [1]: >15 | Ratio WT/mutant (HCC827) [6]: >15 | GI50 [2, 7]: > 1000 nM | GI50 [3, 9]: 100 to 500 nM | GI50 [4, 11]: 10 to 100 nM

C=CC(=O)Nc1cccc(Nc2nc(Nc3ccc(N4CCN(S(C)(=O)=O)CC4)cc3OC)ncc2C(F)(F)F)c1 [Compound I-17, N-(3-(2-(2-methoxy-4-(4-(methylsulfonyl)piperazin-1-yl)phenylamino)-5-(trifluoromethyl)pyrimidin-4-ylamino)phenyl)acrylamide]
Ratio WT/mutant (H1975) [1]: >30 | Ratio WT/mutant (HCC827) [6]: >5 | GI50 [2, 7]: > 1000 nM | GI50 [3, 9]: 100 to 500 nM | GI50 [4, 11]: 10 to 100 nM

C=CC(=O)Nc1cccc(Oc2nc(Nc3ccc(N4CCN(C(=O)NC)CC4)cc3OC)ncc2C(F)(F)F)c1 [Compound I-21, 4-(4-(4-(3-acrylamidophenoxy)-5-(trifluoromethyl)pyrimidin-2-ylamino)-3-methoxyphenyl)-N-methylpiperazine-1-carboxamide]
Ratio WT/mutant (H1975) [1]: >5 | GI50 [2, 7]: 500 to 1000 nM | GI50 [3, 9]: 100 to 500 nM | GI50 [4, 11]: 10 to 100 nM

C=CC(=O)Nc1cccc(Oc2nc(Nc3ccc(N4CCN(S(C)(=O)=O)CC4)cc3OC)ncc2C(F)(F)F)c1 [Compound I-22, N-(3-(2-(2-methoxy-4-(4-(methylsulfonyl)piperazin-1-yl)phenylamino)-5-(trifluoromethyl)pyrimidin-4-yloxy)phenyl)acrylamide]
Ratio WT/mutant (H1975) [1]: >35 | GI50 [2, 7]: > 1000 nM | GI50 [3, 9]: 100 to 500 nM | GI50 [4, 11]: 10 to 100 nM

C=CC(=O)Nc1cccc(Oc2nc(Nc3ccc(N4CCN(S(C)(=O)=O)CC4)cc3OC)ncc2Cl)c1 [Compound I-26, N-(3-(5-chloro-2-(2-methoxy-4-(4-(methylsulfonyl)piperazin-1-yl)phenylamino)pyrimidin-4-yloxy)phenyl)acrylamide]
Ratio WT/mutant (H1975) [1]: >40 | GI50 [2, 7]: > 1000 nM | GI50 [3, 9]: > 1000 nM | GI50 [4, 11]: 10 to 100 nM

C=CC(=O)Nc1cccc(Nc2nc(Nc3ccc(N4CCN(C(C)=O)CC4)cc3OC(F)(F)F)ncc2C(F)(F)F)c1 [Compound I-33, N-(3-(2-(4-(4-acetylpiperazin-1-yl)-2-(trifluoromethoxy)phenylamino)-5-(trifluoromethyl)pyrimidin-4-ylamino)phenyl)acrylamide]
Ratio WT/mutant (H1975) [1]: >50 | GI50 [2, 7]: > 1000 nM | GI50 [3, 9]: 10 to 100 nM | GI50 [4, 11]: 100 to 500 nM

C=CC(=O)Nc1cccc(Nc2nc(Nc3ccc(N4CCN(C(=O)C(C)(C)C)CC4)cc3OC)ncc2C(F)(F)F)c1 [Compound I-34, N-(3-(2-(2-methoxy-4-(4-pivaloylpiperazin-1-yl)phenylamino)-5-(trifluoromethyl)pyrimidin-4-ylamino)phenyl)acrylamide]
Ratio WT/mutant (H1975) [1]: >35 | GI50 [2, 7]: > 1000 nM | GI50 [3, 9]: 100 to 500 nM | GI50 [4, 11]: 10 to 100 nM

C=CC(=O)Nc1cccc(Nc2nc(Nc3ccc(N4CCN(C(C)=O)CC4)cc3OC)ncc2Br)c1 [Compound I-40, N-(3-(2-(4-(4-acetylpiperazin-1-yl)-2-methoxyphenylamino)-5-bromopyrimidin-4-ylamino)phenyl)acrylamide]
Ratio WT/mutant (H1975) [1]: >1 | GI50 [2, 7]: 500 to 1000 nM | GI50 [3, 9]: 100 to 500 nM | GI50 [4, 11]: 10 to 100 nM

C=CC(=O)Nc1cccc(Nc2nc(Nc3ccc(N4CCN(S(C)(=O)=O)CC4)cc3OC)ncc2Cl)c1 [Compound I-41, N-(3-(5-chloro-2-(2-methoxy-4-(4-(methylsulfonyl)piperazin-1-yl)phenylamino)pyrimidin-4-ylamino)phenyl)acrylamide]
Ratio WT/mutant (H1975) [1]: >1 | GI50 [2, 7]: > 1000 nM | GI50 [3, 9]: 100 to 500 nM | GI50 [4, 11]: 10 to 100 nM

C=CC(=O)Nc1cccc(Nc2nc(Nc3ccc(N4CCCN(C(=O)OC(C)(C)C)CC4)cc3OC)ncc2C(F)(F)F)c1 [Compound I-44, tert-butyl 4-(4-(4-(3-acrylamidophenylamino)-5-(trifluoromethyl)pyrimidin-2-ylamino)-3-methoxyphenyl)-1,4-diazepane-1-carboxylate]
Ratio WT/mutant (H1975) [1]: >5 | GI50 [2, 7]: > 1000 nM | GI50 [3, 9]: 500 to 1000 nM | GI50 [4, 11]: 500 to 1000 nM

C=CC(=O)Nc1cccc(Nc2nc(Nc3ccc(N4CCN(C(C)=O)[C@H](C(=O)OC)C4)cc3OC)ncc2C(F)(F)F)c1 [Compound I-48]
Ratio WT/mutant (H1975) [1]: >50 | GI50 [2, 7]: > 1000 nM | GI50 [3, 9]: 10 to 100 nM | GI50 [4, 11]: 10 to 100 nM

C=CC(=O)Nc1cccc(Nc2nc(Nc3ccc(N4CCS(=O)(=O)CC4)cc3OC)ncc2C(F)(F)F)c1 [Compound I-49, N-(3-(2-(2-methoxy-4,4-dioxo-4-thiomorpholinophenylamino)-5-(trifluoromethyl)pyrimidin-4-ylamino)phenyl)acrylamide]
Ratio WT/mutant (H1975) [1]: >20 | GI50 [2, 7]: > 1000 nM | GI50 [3, 9]: 100 to 500 nM | GI50 [4, 11]: 10 to 100 nM
